We go through six molecules from ChEMBL document CHEMBL6078718, “F-CPI: A Multimodal Deep Learning Approach for Predicting Compound Bioactivity Changes Induced by Fluorine Substitution” (J Med Chem, 2025).

As usually defined, the IC50 is the concentration that gives 50% inhibition. A lower IC50 goes with greater potency in that assay.

This assay concerns the target Replicase polyprotein 1ab (Severe acute respiratory syndrome coronavirus 2, UniProt P0DTD1). The assay can be described thus: Inhibition of 6xHis-tagged SARS-CoV-2 3CLpro using DKE as substrate preincubated for 60 mins followed by substrate addition measured after 20 mins by fluorescence based assay.
`C[C@H](NC(=O)C(F)F)C(=O)N(C)[C@@H](CC1CC1)C(=O)N1C[C@]2(C[C@H]1C#N)C(=O)Nc1ccccc12` yielded a half-inhibitory concentration (IC50) of 21.2 nM. In turn, `CC(=O)N[C@H](C(=O)N1C[C@H]2[C@@H]([C@H]1C(=O)N[C@H](C#N)C[C@@H]1CCNC1=O)C2(C)C)c1cc(Cl)c(OCCN(C)C)c(Cl)c1` came in with an IC50 of 28200 nM. On to `C[C@H](NC(=O)C(F)(F)F)C(=O)N(C)[C@@H](CC1CC1)C(=O)N1C[C@]2(C[C@H]1C#N)C(=O)Nc1ccccc12`, for which 25.5 nM corresponded to half-maximal inhibition (IC50). As for `CN(C)CCOc1c(Cl)cc([C@H](NC(=O)CF)C(=O)N2C[C@H]3[C@@H]([C@H]2C(=O)N[C@H](C#N)C[C@@H]2CCNC2=O)C3(C)C)cc1Cl`, the figure is 230 nM; as for `CC(C)C[C@@H](C(=O)N1C[C@]2(C[C@H]1C#N)C(=O)Nc1ccccc12)N(C)C(=O)[C@H](C)NC(=O)C(C)(C)F`, 24.3 nM; as for `CC(C)C[C@@H](C(=O)N1C[C@]2(C[C@H]1C#N)C(=O)Nc1ccccc12)N(C)C(=O)[C@H](C)NC(=O)C(C)C`, 29.8 nM.
